Kd and IC50 data for 23 compounds are collected here from patent publication US8946216B2, “Indazole derivatives useful as ERK inhibitors” (Merck Sharp & Dohme Corp., priority 2010, dated 2015).

The target in one assay is ERK protein (Homo sapiens, UniProt P28482). The experiment in a line: TdF (Temperature Dependence Fluorescence, thermal shift) assay for ERK. The settings on record: read-out: TdF Kd; 3 μM ERK protein, 15, 50 or 100 μM compound, Sypro Orange; Kd calculated from ΔTm; uncertainty estimated ±50%. It counts as binding. The source says:
Assays: TdF Assay for ERK
The SAR (Structure Activity Relationship) for ERK ligands covered by this invention was interrogated using the TdF (Temperature Dependence Fluorescence) assay or best known as thermal shift assay. The TdF assay was mainly conducted in the 96-well based CHROMO-4 real time fluorescence plate reader (BioRad). The Sypro Orange (Sigma-Aldrich), environmentally sensitive fluorescence dye, was used to monitor the protein folding-unfolding transition. Protein-ligand binding was gauged by the change (or shift) in the unfolding transition temperature (ΔTm) acquired at protein alone with respect to protein in the presence of ligand of interest.
Compound of interest was first prepared in DMSO stock (typical concentration: 10 mM). Sample of 20 μL was then added into the 96-well PCR plate, where it consisted of 3 μM. […] Final percentage of DMSO resided in the sample was 2%. The sample plate was heated from 30° C. to 90° C. with thermal ramping rate of 1 ° C./min. The fluorescence signals were acquired with excitation and emission wavelengths centered at 490 and 560 nm respectively. The instrument thermal stability was ±0.2° C. The melting temperatures (Tm) for ERK protein under aforementioned conditions occurred at 61.0±0.2° C. and 64.8±0.2° C. respectively.
Theoretical Basis for TdF-based Ligand Binding Affinity Constant
The derivation of TdF-based ligand binding affinity constant (Kd) followed closely those previously formulated by Brandts and Lin [2]. In brief, the binding constant of the ligand at the Tm is expressed as below: […]
where T0 is the midpoint of unfolding for unliganded protein and Tm is the midpoint of unfolding in presence of ligand. [LTm] is free ligand at Tm. The ΔHu and ΔCpu are the enthalpy of unfolding and heat capacity change of unfolding for the protein respectively. Following algorithm derived by Winsor and coworker, the T0, ΔHu and ΔCpu can be determined separately from nonlinear regression fitting the protein alone melting curve:
Where F(T) is the observed fluorescence intensity at any temperature T, Yn and Yu are the predicted fluorescence intensities for fully folded and unfolded protein, respectively; mn and mu are slope correction for changes in Yn and Yu with respect to changes in temperature (analogously replace T0 with Tm in the above equation for liganded protein to yield Tm).
where ΔHL(T) is the van't Hoff enthalpy of ligand binding at temperature T and ΔCpL is the heat capacity upon ligand binding. For simplicity, the ΔCpL and ΔHL(T) were set to zero and −7 kcal/mol respectively. The uncertainty in the calculated ligand binding affinity constant was estimated to be ±50%.

In assay [1] the target is unphosphorylated Mouse ERK2 protein (inactive ERK2) (Mus musculus, UniProt P63085). The assay is described as follows: Coupled ERK2 (cERK) assay, coupled MEK1/ERK2 IMAP. The class given is biochemical. Particulars: 30 min preincubation with inactive ERK2, then activation by human MEK1; 30 μM ATP; fluorescence polarization; read-out: cERK2 IC50. The source says: • 1. M. W. Pantoliana, E. C. Petrella, J. D. Kwasnoski, V. S. Lobanov, J. Myslik, E. Graf, T. Carver, E. Asel, B. A. Springer, P. Lane, F. R. Salemme, High-density miniaturized thermal shift assays as a general strategy for drug discovery, J. Biomol. Screen 6 (2001) 429-440 • 2. J. F. Brandts, L.-N. Lin, Study of strong to ultratight protein interactions using differential scanning calorimetry, Biochemistry 29 (1990) 6927-6940 • 3. Mayhood, T. W., Windsor, W. T., Ligand binding affinity determined by temperature-dependent circular dichroism: Cyclin-dependent kinase 2 inhibitors, Analytical Biochemistry 345 (2005) 187-197 Coupled ERK2 (cERK) Assay:
14 μl of kinase buffer (10 mM Tris.HCl pH 7.2, 10 mM MgCl2, 0.01% Tween-20, 1 mM DTT) containing 0.4 ng unphosphorylated Mouse ERK2 protein was added to each well of a black 384-well assay plate. […] DMSO concentration during initial incubation is 6.7%. ERK2 activity was determined to be insensitive to DMSO concentrations up to 20%. ERK2 was then activated and it's kinase activity measured by the addition of 10 μl kinase buffer with the following components (final concentration per reaction): 2 ng active (phosphorylated) human MEK1 protein and 4 μM (total) ERK2 IMAP substrate peptides (3.9 μM unlabeled IPTTPITTTYFFFK-CONH2 and 100 nM IPTTPITTTYFFFK(5-carboxyfluorescein)-CONH2) and 30 μM ATP. DMSO concentration during ERK activation was 4%. After one hour, reactions were terminated by addition of 60 μl IMAP detections beads in binding buffer (Molecular Devices). Binding was allowed to equilibrate for 30 minutes before reading the plate on an LJL Analyst Fluorescence Polarization plate reader. […] Active compounds were reconfirmed in an independent assay.

Sequence of unphosphorylated Mouse ERK2 protein (inactive ERK2) (P63085 whole entry): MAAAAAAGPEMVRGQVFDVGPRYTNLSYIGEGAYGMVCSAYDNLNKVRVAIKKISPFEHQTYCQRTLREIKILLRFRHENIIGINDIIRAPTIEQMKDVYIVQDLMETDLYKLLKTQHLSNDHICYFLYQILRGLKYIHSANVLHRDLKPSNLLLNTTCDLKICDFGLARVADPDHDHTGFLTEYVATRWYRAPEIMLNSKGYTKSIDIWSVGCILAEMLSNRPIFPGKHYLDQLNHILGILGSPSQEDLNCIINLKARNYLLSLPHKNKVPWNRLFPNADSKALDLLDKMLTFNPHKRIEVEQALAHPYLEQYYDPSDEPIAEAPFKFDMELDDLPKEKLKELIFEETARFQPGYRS
Sequence of ERK protein (P28482 2-360): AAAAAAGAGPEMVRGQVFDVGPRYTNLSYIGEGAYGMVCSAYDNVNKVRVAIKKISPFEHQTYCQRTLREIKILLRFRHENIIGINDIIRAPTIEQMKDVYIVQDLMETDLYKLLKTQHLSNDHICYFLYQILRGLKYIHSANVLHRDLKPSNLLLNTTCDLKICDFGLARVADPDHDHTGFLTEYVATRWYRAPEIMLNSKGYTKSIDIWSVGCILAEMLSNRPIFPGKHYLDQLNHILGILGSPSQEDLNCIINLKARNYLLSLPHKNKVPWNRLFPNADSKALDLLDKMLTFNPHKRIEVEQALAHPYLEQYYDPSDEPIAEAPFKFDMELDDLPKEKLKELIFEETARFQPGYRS

Regarding `O=C(Nc1ccc2[nH]nc(-c3ccncc3)c2c1)C1CN(Cc2ccsc2)CCO1` (stereo not drawn) [Compound 3, N-[3-(4-PYRIDINYL)-1H-INDAZOL-5-YL]-4-(3-THIENYLMETHYL)-2-MORPHOLINECARBOXAMIDE], the Kd on ERK protein is 77 nM. The IC50 in assay [1] stood at 87.6 nM.

Take `O=C(Nc1ccc2[nH]nc(-c3ccncc3)c2c1)C1CN(Cc2ccccc2Br)CCS1` (stereo not drawn) [Compound 6, 4-[(2-BROMOPHENYL)METHYL]-N-[3-(4-PYRIDINYL)-1H-INDAZOL-5-YL]-2-THIOMORPHOLINECARBOXAMIDE]: the Kd on ERK protein is 38 nM. Also, the IC50 in assay [1] is 114 nM.

`O=C(Nc1ccc2[nH]nc(-c3ccncc3)c2c1)C1CN(Cc2ccccc2Br)CCO1` (stereo not drawn) [Compound 7, 4-[(2-BROMOPHENYL)METHYL]-N-[3-(4-PYRIDINYL)-1H-INDAZOL-5-YL]-2-MORPHOLINECARBOXAMIDE]: the Kd on ERK protein was 17 nM. The half-inhibitory concentration (IC50) in assay [1] was determined as 96.9 nM.

On to `O=C(Nc1ccc2[nH]nc(-c3ccncc3)c2c1)C1CN(Cc2cccnc2)CCS1` (stereo not drawn) [Compound 8, N-[3-(4-PYRIDINYL)-1H-INDAZOL-5-YL]-4-(3-PYRIDINYLMETHYL)-2-THIOMORPHOLINECARBOXAMIDE], for which, on ERK protein, the Kd is 4610 nM. For the same compound, the IC50 in assay [1] came to 1070 nM.

Regarding `O=C(Nc1ccc2[nH]nc(-c3ccncc3)c2c1)C1CN(Cc2ccccn2)CCS1` (stereo not drawn) [Compound 12, N-[3-(4-PYRIDINYL)-1H-INDAZOL-5-YL]-4-(2-PYRIDINYLMETHYL)-2-THIOMORPHOLINECARBOXAMIDE], the Kd at ERK protein was 674 nM. In assay [1], the IC50 came out at 1310 nM.

Take `O=C(Nc1ccc2[nH]nc(-c3ccncc3)c2c1)C1CN(Cc2cscn2)CCS1` (stereo not drawn) [Compound 13, N-[3-(4-PYRIDINYL)-1H-INDAZOL-5-YL]-4-(4-THIAZOLYLMETHYL)-2-THIOMORPHOLINECARBOXAMIDE]: the Kd at ERK protein is 201 nM. Moreover, the IC50 in assay [1] came out at 929 nM.

In the case of `O=C(Nc1ccc2[nH]nc(-c3ccncc3)c2c1)C1CN(Cc2ccsc2)CCS1` (stereo not drawn) [Compound 14, N-[3-(4-PYRIDINYL)-1H-INDAZOL-5-YL]-4-(3-THIENYLMETHYL)-2-THIOMORPHOLINECARBOXAMIDE], the Kd at ERK protein is 34 nM. In addition, the IC50 in assay [1] came out at 183 nM.

Turning to `O=C(Nc1ccc2[nH]nc(-c3ccncc3)c2c1)C1CN(Cc2ccccc2Cl)CCO1` (stereo not drawn) [Compound 15, 4-[(2-CHLOROPHENYL)METHYL]-N-[3-(4-PYRIDINYL)-1H-INDAZOL-5-YL]-2-MORPHOLINECARBOXAMIDE], on ERK protein, the Kd was 17 nM. In assay [1], the IC50 came out at 77.8 nM.

As for `O=C(Nc1ccc2[nH]nc(-c3ccncc3)c2c1)C1CN(Cc2ccccc2)CCO1` (stereo not drawn) [Compound 20, 4-(PHENYLMETHYL)-N-[3-(4-PYRIDINYL)-1H-INDAZOL-5-YL]-2-MORPHOLINECARBOXAMIDE], the Kd at ERK protein was 10 nM. Moreover, the IC50 in assay [1] was determined as 51.1 nM.

As for `O=C(Nc1ccc2[nH]nc(-c3ccncc3)c2c1)C1CCCN(Cc2ccccc2Br)C1` (stereo not drawn) [Compound 21, 1-[(2-BROMOPHENYL)METHYL]-N-[3-(4-PYRIDINYL)-1H-INDAZOL-5-YL]-3-PIPERIDINECARBOXAMIDE], the Kd at ERK protein is 4 nM. In assay [1], the IC50 amounted to 130 nM.

With `O=C(Nc1ccc2[nH]nc(-c3ccncc3)c2c1)C1CCCN(Cc2ccccc2F)C1` (stereo not drawn) [Compound 22, 1-[(2-FLUOROPHENYL)METHYL]-N-[3-(4-PYRIDINYL)-1H-INDAZOL-5-YL]-3-PIPERIDINECARBOXAMIDE], at ERK protein, the Kd was 9 nM. Also, the IC50 in assay [1] amounted to 27.3 nM.

In the case of `O=C(Nc1ccc2[nH]nc(-c3ccncc3)c2c1)C1CCCN(Cc2ccccc2Cl)C1` (stereo not drawn) [Compound 23, 1-[(2-CHLOROPHENYL)METHYL]-N-[3-(4-PYRIDINYL)-1H-INDAZOL-5-YL]-3-PIPERIDINECARBOXAMIDE], the Kd at ERK protein was 3 nM. Besides, the IC50 in assay [1] turned out to be 158 nM.

On to `O=C(Nc1ccc2[nH]nc(-c3ccncc3)c2c1)C1CCCN(Cc2ccccc2)C1` (stereo not drawn) [Compound 24, 1-(PHENYLMETHYL)-N-[3-(4-PYRIDINYL)-1H-INDAZOL-5-YL]-3-PIPERIDINECARBOXAMIDE], for which, on ERK protein, the Kd is 20 nM. The IC50 in assay [1] came out at 239 nM.

For `O=C(Nc1ccc2[nH]nc(-c3ccncc3)c2c1)C1CCCNC1` (stereo not drawn) [Compound 25, N-[3-(4-PYRIDINYL)-1H-INDAZOL-5-YL]-3-PIPERIDINECARBOXAMIDE], the Kd on ERK protein was 4500 nM. In addition, the IC50 in assay [1] was 631 nM.

With `CN1CCCC(C(=O)Nc2ccc3[nH]nc(-c4ccncc4)c3c2)C1` (stereo not drawn) [Compound 26, 1-METHYL-N-[3-(4-PYRIDINYL)-1H-INDAZOL-5-YL]-3-PIPERIDINECARBOXAMIDE], the Kd on ERK protein is 1100 nM. Besides, in assay [1], the IC50 was determined as 4870 nM.

`O=C(Nc1ccc2[nH]nc(-c3ccncc3)c2c1)C1CN(Cc2ccc(Cl)cc2)CCO1` (stereo not drawn) [Compound 27, 4-[(4-CHLOROPHENYL)METHYL]-N-[3-(4-PYRIDINYL)-1H-INDAZOL-5-YL]-2-MORPHOLINECARBOXAMIDE]: the Kd at ERK protein is 3530 nM. In addition, the IC50 in assay [1] is 538 nM.

As for `COc1cccc(CN2CCOC(C(=O)Nc3ccc4[nH]nc(-c5ccncc5)c4c3)C2)c1` (stereo not drawn) [Compound 28, 4-[(3-METHOXYPHENYL)METHYL]-N-[3-(4-PYRIDINYL)-1H-INDAZOL-5-YL]-2-MORPHOLINECARBOXAMIDE], the Kd at ERK protein was 3620 nM. Moreover, the IC50 in assay [1] worked out at 290 nM.

Take `N#Cc1ccc(CN2CCOC(C(=O)Nc3ccc4[nH]nc(-c5ccncc5)c4c3)C2)cc1` (stereo not drawn) [Compound 30, 4-[(4-CYANOPHENYL)METHYL]-N-[3-(4-PYRIDINYL)-1H-INDAZOL-5-YL]-2-MORPHOLINECARBOXAMIDE]: at ERK protein, the Kd is 3290 nM. The IC50 in assay [1] was 1280 nM.

Consider `N#Cc1cccc(CN2CCOC(C(=O)Nc3ccc4[nH]nc(-c5ccncc5)c4c3)C2)c1` (stereo not drawn) [Compound 31, 4-[(3-CYANOPHENYL)METHYL]-N-[3-(4-PYRIDINYL)-1H-INDAZOL-5-YL]-2-MORPHOLINECARBOXAMIDE], for which, on ERK protein, the Kd is 2720 nM. In addition, the IC50 in assay [1] amounted to 1180 nM.

Regarding `N#Cc1ccccc1CN1CCOC(C(=O)Nc2ccc3[nH]nc(-c4ccncc4)c3c2)C1` (stereo not drawn) [Compound 32, 4-[(2-CYANOPHENYL)METHYL]-N-[3-(4-PYRIDINYL)-1H-INDAZOL-5-YL]-2-MORPHOLINECARBOXAMIDE], at ERK protein, the Kd was 775 nM. Further, in assay [1], the IC50 was determined as 383 nM.

For `COc1ccc(CN2CCOC(C(=O)Nc3ccc4[nH]nc(-c5ccncc5)c4c3)C2)cc1` (stereo not drawn) [Compound 33, 4-[(4-METHOXYPHENYL)METHYL]-N-[3-(4-PYRIDINYL)-1H-INDAZOL-5-YL]-2-MORPHOLINECARBOXAMIDE], the Kd at ERK protein was 1140 nM. The IC50 in assay [1] is 226 nM.

Regarding `COc1ccc(CN2CCOC(C(=O)Nc3ccc4[nH]nc(-c5ccncc5)c4c3)C2)c(F)c1` (stereo not drawn) [Compound 38, 4-[(2-FLUORO-4-METHOXYPHENYL)METHYL]-N-[3-(4-PYRIDINYL)-1H-INDAZOL-5-YL]-2-MORPHOLINECARBOXAMIDE], the dissociation constant Kd on ERK protein was 588 nM. In addition, the IC50 in assay [1] came out at 556 nM.

Turning to `O=C(Nc1ccc2[nH]nc(-c3ccncc3)c2c1)C1CN(Cc2ccccc2)CCC1O` (stereo not drawn) [Compound 71, 4-HYDROXY-1-(PHENYLMETHYL)-N-[3-(4-PYRIDINYL)-1H-INDAZOL-5-YL]-3-PIPERIDINECARBOXAMIDE], the Kd on ERK protein was 84.1 nM.

A word on the Kd: it is the constant that tells how readily two partners part at equilibrium. What is called IC50 is the midpoint of a concentration-inhibition curve.
